Experimental data taken from US20050249857A1, “Lignan complexes” (priority 2002, published 2005).
≈ marks a conversion by molar mass, not a printed value. Like-named read-outs stand apart in the source and are kept apart here.

Tests used:
[1] = Phase-solubility study with γ-CD (Higuchi and Connors); conditions: 0.16 M acetate buffer pH 5.0, μ = 0.5, 25° C., equilibration 24 hours
Method: (§1) The samples from the solubility and stability studies were analysed by using the HPLC system which consist of the UV-detector (L-7400), interface module (D-7000), pump (L-7100) and autosampler (L-7250, Merck Hitachi, Japan). Purospher® reversed phase column (RP-18e, 5 μm, 125×4 mm) was used in all chromatographic separations.
(§2) An excess amount of lignan or lignan ester was added to acetate buffer (0.16 M; pH 5.0; ionic strength 0.5) containing various concentrations of γ-CD (0-10%). The suspensions were shaken in the dark (25° C.) for 24 hour and the pH of the suspensions were monitored during the equilibration. The pH of suspensions was adjusted to 5.0 with HCl or NaOH if necessary. After equilibration, the suspensions were filtered through 0.45 μm membrane filters and analysed by HPLC.

[2] = Phase-solubility study of HMR with HP-β-CD; format: physicochemical; conditions: for solubility at 72 h: acetate buffer, 25 °C, thermodynamic from solid, 0.16 M acetate buffer pH 5.0, μ = 0.5, 25° C., equilibration 72 hours
Method: The phase solubility studies with HMR was also performed with HP-β-CD (0-10%). In the case of HP-β-CD the equilibration time was 72 hours.

physchem = conditions: 25 °C, pH 5, aqueous buffer, thermodynamic from solid
Method: as §1, §2

[3] = Chemical stability of HMR in acetate buffer with and without 2% γ-CD; format: physicochemical; conditions: for First-order rate constant kobs for chemical degradation / shelf-life t90% for chemical degradation: 0.16 M acetate buffer pH 5.0, 30° C.; for half-life: acetate buffer, pH 5, 0.16 M acetate buffer pH 5.0, 30° C., read-out: half-life t1/2 for chemical degradation (converted)
Method: All the solutions were prepared by dissolving 1.5-2.0 mg of HMR into 20 ml of the solutions mentioned above, and the concentration of the remaining HMR was determined at appropriate intervals by HPLC. The pseudo-first order rate constant for overall degradation of HMR was determined from the slopes of the linear semilogarithmic plots of remaining HMR versus time. The results of the stability studies were calculated as an average of three determinations.

Compound | aqueous solubility ([1]; γ-CD 0 g/100 ml) | aqueous solubility ([1]; γ-CD 1 g/100 ml) | aqueous solubility ([1]; γ-CD 2 g/100 ml) | aqueous solubility ([1]; γ-CD 5 g/100 ml) | aqueous solubility ([1]; γ-CD 10 g/100 ml) | solubility at 24 h (physchem) | further results
hydroxymatairesinol diacetate [HMRdiAc] | 750 µg/mL | 1460 µg/mL | 2070 µg/mL | 940 µg/mL | 160 µg/mL |  | 
COc1cc(C[C@H]2C(=O)OC[C@@H]2[C@H](O)c2ccc(O)c(OC)c2)ccc1O [HMR, hydroxymatairesinol] |  |  |  |  |  | 6700 µg/mL (≈ 17.9 mM) | effect of HP-β-CD on aqueous solubility ([2]; HP-β-CD 0-10%, pH 5.0): increases aqueous solubility; solubility at 72 h ([2]; pH 5, aqueous buffer, HP-β-CD 0 g/100 ml): 14600 µg/mL (≈ 38.9 mM); solubility at 72 h ([2]; pH 5, aqueous with cosolvent or surfactant or cyclodextrin, HP-β-CD 1 g/100 ml): 14900 µg/mL (≈ 39.8 mM); solubility at 72 h ([2]; pH 5, aqueous with cosolvent or surfactant or cyclodextrin, HP-β-CD 2 g/100 ml): 14900 µg/mL (≈ 39.9 mM); solubility at 72 h ([2]; pH 5, aqueous with cosolvent or surfactant or cyclodextrin, HP-β-CD 5 g/100 ml): 20200 µg/mL (≈ 53.8 mM); solubility at 72 h ([2]; pH 5, aqueous with cosolvent or surfactant or cyclodextrin, HP-β-CD 10 g/100 ml): 26800 µg/mL (≈ 71.7 mM); First-order rate constant kobs for chemical degradation ([3]; with 2% γ-CD): 5.71e-05 h⁻¹; shelf-life t90% for chemical degradation ([3]; with 2% γ-CD): 1845 h; First-order rate constant kobs for chemical degradation ([3]; without γ-CD): 0.000691 h⁻¹; shelf-life t90% for chemical degradation ([3]; without γ-CD): 152 h; half-life ([3]; with 2% γ-CD): 506 days; half-life ([3]; without γ-CD): 41.8 days; increase of chemical stability by 2% γ-CD ([3]; pH 5.0, with versus without 2% γ-CD): about 12 fold; kinetics of overall degradation ([3]; presence and absence of 2% γ-CD at pH 5.0): followed first-order kinetics
COc1cc(C[C@@H](CO)[C@H](CO)Cc2ccc(O)c(OC)c2)ccc1O [SECO, secoisolariciresinol] | 700 µg/mL (≈ 1.93 mM) | 1740 µg/mL (≈ 4.8 mM) | 2020 µg/mL (≈ 5.57 mM) | 1780 µg/mL (≈ 4.91 mM) | 390 µg/mL (≈ 1.08 mM) |  | 
CCCC(=O)Oc1ccc(C[C@H]2COC(=O)[C@@H]2Cc2ccc(OC(=O)CCC)c(OC)c2)cc1OC [MRdiBu, matairesinol dibutyrate] | —* (concentration is under the detection limit of the HPLC method employed.) | —* (concentration is under the detection limit of the HPLC method employed.) | 0.87 µg/mL (≈ 0.00174 mM) | 1.21 µg/mL (≈ 0.00243 mM) | 0.84 µg/mL (≈ 0.00168 mM) |  | 
COc1cc(C[C@H]2COC(=O)[C@@H]2Cc2ccc(O)c(OC)c2)ccc1O [MR, matairesinol] |  |  |  |  |  | 490 µg/mL (≈ 1.37 mM) | 
